Laboratory results published in US11331289B2, “Antimicrobial composition” (priority 2017, dated 2022).

Tested on: S. aureus n°16 302
Test: Time-killing curve, broth macrodilution
Type: cell-based, Staphylococcus aureus
Procedure: The time-killing curve is used to determine the bactericidal or bacteriostatic activity of the antibimicrobial substances. Time-killing curves of Oxyclozanide against canine isolates of Staphylococcus aureus and Staphylococcus pseudintermedius were obtained using broth macrodilution method. After contact of different fixed amounts of Oxyclozanide with an inoculum, viable bacteria are counted immediately after contact and after 1, 3, 6 and 24 hours. Counting is performed on agar medium without antimicrobial substance.
Results are analyzed by plotting log10 CFU/ml versus time for each tested concentration. Bactericidal activity as defined by 99.9% killing of the inoculum is determined from time-killing curves by noting the presence of a ≥3 log10 decrease in CFU/ml.
Bacterial strains were sub-cultured twice from one cryobead on Mueller Hinton agar and incubated at 37° C. for 18-24 hours. From the second subcultures, isolated colonies were transferred into tubes containing 2 ml of Mueller Hinton Broth in order to obtain bacterial suspensions at 10^8 CFU/ml, knowing that an optical density of 0.1 at 620 nm corresponds to bacterial suspension at 10^8 CFU/ml. Then, bacterial suspensions were adjusted between 5 10^7 and 1 10^8 CFU/ml by dilution in Mueller Hinton broth.
For each concentration of Oxyclozanide to be tested, 50 μl of working solution concentrated 100× and […] of inoculum were added to 5 ml of Mueller-Hinton broth. Thus, the range of tested concentrations was from 0.125 to 8 μg/ml and the concentration of micro-organism was between 1 10^6 and 2 10^6 CFU/ml.
At the same time, a tube without Oxyclozanide was prepared: 50 μl of DMSO and 100 μl of inoculum were added to 5 ml of Mueller-Hinton broth and used as growth control. Tubes were incubated at 36° C. under agitation.
The numbers of viable bacteria were determined immediately after contact (TO) and after 1, 3, 6 and 24 h of incubation.
At each time, samples of each tube were taken and dilutions were performed in Mueller-Hinton broth. Then, dilutions were spread on Mueller Hinton agar with spiral plater. After 18 h of incubation at 36° C., counting of colonies was performed with automatic colony counter which determine the concentrations of viable bacteria. The technique employed made it possible to quantify bacterial concentrations as low as 20 CFU/ml.
Time-killing curves were plotted for each concentration of Oxyclozanide using Microsoft Excel software. The number or surviving bacteria was expressed as log10 CFU/ml. The time-killing curves of each strain represent the decrease in the viable bacteria count as a function of time for the Oxyclozanide concentrations concerned.
Bactericidal activity as defined by 99.9% killing of the inoculum is determined from time-killing curves by noting the presence of a ≥3 log10 decrease in CFU/ml.

SMILES: O=C(Nc1cc(Cl)cc(Cl)c1O)c1c(O)c(Cl)cc(Cl)c1Cl [Oxyclozanide]
- Bacteria reducing rate (0.25 μg/ml (½ MIC), 1 h): 0.0 Δ log10 CFU/ml
- Bacteria reducing rate (0.25 μg/ml (½ MIC), 3 h): 0.1 Δ log10 CFU/ml
- Bacteria reducing rate (0.25 μg/ml (½ MIC), 6 h): 0.6 Δ log10 CFU/ml
- Bacteria reducing rate (0.25 μg/ml (½ MIC), 24 h): 1.7 Δ log10 CFU/ml
- Bacteria reducing rate (0.5 μg/ml (MIC), 1 h): 0.0 Δ log10 CFU/ml
- Bacteria reducing rate (0.5 μg/ml (MIC), 3 h): 0.0 Δ log10 CFU/ml
- Bacteria reducing rate (0.5 μg/ml (MIC), 6 h): −0.3 Δ log10 CFU/ml
- Bacteria reducing rate (0.5 μg/ml (MIC), 24 h): 1.6 Δ log10 CFU/ml
- Bacteria reducing rate (1 μg/ml (2 MIC), 1 h): 0.0 Δ log10 CFU/ml
- Bacteria reducing rate (1 μg/ml (2 MIC), 3 h): 0.0 Δ log10 CFU/ml
- Bacteria reducing rate (1 μg/ml (2 MIC), 6 h): −0.2 Δ log10 CFU/ml
- Bacteria reducing rate (1 μg/ml (2 MIC), 24 h): 1.5 Δ log10 CFU/ml
- Viable bacteria count (1 μg/ml (2 MIC), 24 h): 7.9 Log10 CFU/ml
- Bacteria reducing rate (2 μg/ml (4 MIC), 1 h): 0.0 Δ log10 CFU/ml
- Bacteria reducing rate (2 μg/ml (4 MIC), 3 h): −0.1 Δ log10 CFU/ml
- Bacteria reducing rate (2 μg/ml (4 MIC), 6 h): −0.5 Δ log10 CFU/ml
- Viable bacteria count (2 μg/ml (4 MIC), 6 h): 6.0 Log10 CFU/ml
- Bacteria reducing rate (2 μg/ml (4 MIC), 24 h): −2.5 Δ log10 CFU/ml
- Viable bacteria count (4 μg/ml (8 MIC), 0 h): 6.5 Log10 CFU/ml
- Bacteria reducing rate (4 μg/ml (8 MIC), 1 h): −0.2 Δ log10 CFU/ml
- Bacteria reducing rate (4 μg/ml (8 MIC), 3 h): −0.7 Δ log10 CFU/ml
- Viable bacteria count (4 μg/ml (8 MIC), 3 h): 5.8 Log10 CFU/ml
- Bacteria reducing rate (4 μg/ml (8 MIC), 6 h): −2.3 Δ log10 CFU/ml
- Bacteria reducing rate (4 μg/ml (8 MIC), 24 h): −4.1 Δ log10 CFU/ml
- Viable bacteria count (4 μg/ml (8 MIC), 24 h): 2.4 Log10 CFU/ml
- Bacteria reducing rate (8 μg/ml (16 MIC), 1 h): −0.8 Δ log10 CFU/ml
- Viable bacteria count (8 μg/ml (16 MIC), 1 h): 5.7 Log10 CFU/ml
- Bacteria reducing rate (8 μg/ml (16 MIC), 3 h): −2.3 Δ log10 CFU/ml
- Bacteria reducing rate (8 μg/ml (16 MIC), 6 h): −3.8 Δ log10 CFU/ml
- Viable bacteria count (8 μg/ml (16 MIC), 6 h): 2.7 Log10 CFU/ml
- Bacteria reducing rate (8 μg/ml (16 MIC), 24 h): −5.2 Δ log10 CFU/ml
